Measured values as given in US8557790B2, “A3 adenoside receptor agonists for the reduction of intraocular pressure” (Can-Fite Biopharma Ltd., priority 2009, dated 2013).
“Also recorded” adds a separate entry of the source.

Test system: patients with moderate-to-severe Keratoconjunctivitis Sicca (KCS)
Test: Phase 2 randomized, double-masked, placebo-controlled clinical study of oral IB-MECA; IOP measured at baseline and week 12
Type: in vivo, human
Protocol: A clinical study was conducted in patients with dry eye symptoms. The patients received an oral administration of IB-MECA at a dose of 1 mg or placebo, twice daily.
This study was a Phase 2, randomized, double-masked, placebo-controlled, parallel-group study in adult males and females, aged 18 years and over, with a diagnosis of moderate-to-severe Keratoconjunctivitis Sicca (KCS). Patients were randomized to receive either IB-MECA 1 mg or matching placebo, given orally, twice daily, for 12 weeks. A Screening Period of up to 4 weeks that includes a 2-week run-in period preceded a 12-week treatment period, followed by a 2-week follow-up period.
Some patients received either the IB-MECA capsules or a matching placebo and others received the IB-MECA tablets or a matching placebo.
Eligible patients to be included in the study were adult males or females, aged 18 years and over, with a diagnosis of moderate-to-severe KCS as defined by: • (1) at least 1 of the following ocular symptoms scored at ≧2, where 0=none and 4=very severe/interferes with normal activities: photophobia, blurred vision, foreign body sensation, soreness or pain, itching, burning, dryness; AND • (2) ST (without anesthesia)<7 mm/5 min in either eye; AND • (3) Positive FS, defined as a corneal punctuate fluorescein staining score of ≧1 in either eye, where 0=none and 3=severe. Use of topical ocular treatments was banned during the course of the study other than unreserved artificial tears (REFRESH) up to 8 times/day for the duration of the trial. Also banned was periocular cosmetic application. (c) Patients' Exclusion Criteria
Patients were excluded from the study if they had Sjögren's Syndrome with significant systemic non-exocrine gland involvement, Stevens-Johnson Syndrome, post-burn ocular injury, or chronic ocular disease other than KCS requiring topical treatment. Excluded were also patients being administered topical cyclosporine eye drops or systemic cyclosporine within 3 months prior to the Screening Visit; disease-modifying drugs, including methotrexate and biological agents, whose dose has been changed within 3 months prior to the Screening Visit or was expected to change during the trial; oral corticosteroids>10 mg prednisone, or equivalent, per day; or topical steroids within 2 weeks prior to the Screening Visit and for the duration of the study. […]

[1] = baseline to week 12, 1 mg orally twice daily, N=35

CNC(=O)[C@H]1O[C@@H](n2cnc3c(NCc4cccc(I)c4)ncnc32)[C@H](O)[C@@H]1O [IB-MECA, N^6-(3-iodobenzyl)-adenosine-5′-N-methyluronamide] was tested, and the “IOP % change, Mean” value [1] was −6.07%, the “IOP change, Mean” value [1] was −1.14 and the “decrease in IOP (% change)” value (baseline to week 12, versus 1.95% in the placebo group, p<0.05) was 6.07%. The “IOP week 12, Mean” value (end of 12 weeks treatment, 1 mg orally twice daily, N=35) was 13.00, the “effect on IOP (in words)” value (human subjects, oral 1 mg twice daily, tested subjects in general and patients with elevated IOP in particular) was “decreasing IOP; also recorded: lowering of intraocular pressure; also recorded: much more pronounce decrease in IOP than the placebo group” and the “effect on dry eye symptoms (in words)” value (patients with dry eye symptoms, oral 1 mg twice daily) was “amelioration of some of the dry eye symptoms”. The “IOP at baseline, Mean” value (prior to first treatment, KCS patients, capsules and tablets pooled, N=35) was 14.14.
